System: rabbit renal cortex brush border membrane vesicles
Assay: Uptake of [14C]-labeled glucose into brush border membrane vesicles (transport assay, membrane filtration method)
Assay type: biochemical
Conditions: transport assay on rabbit renal cortex brush border membrane vesicles; 10 μM [14C]D glucose, 30° C., 15 seconds; β-D-gluco form

Row | Compound | IC25
1 | COc1ccc(Cc2sccc2OC2OC(CO)C(O)C(O)C2O)cc1 (centres unmarked) [Example 7, 2-Hydroxymethl-6-[2-(4-methoxy-benzyl)-thiophen-3-yloxy]-tetrahydro-pyran-3,4,5-triol] | 1100 nM
2 | COc1ccc(Cc2sc(C(F)(F)F)cc2OC2OC(CO)C(O)C(O)C2O)cc1 (centres unmarked) [Example 54] | 1400 nM

Source: patent US7666848B2, “Thiophene glycoside derivatives, processes for the preparation, medicaments comprising these compounds, and the use thereof” (Sanofi-Aventis Deutschland GmbH, priority 2002, dated 2010)
